Experimental data from patent US20220152067A1, “Cancer Immunotherapy Adjuvant” (lndustry-Academic Cooperation Foundation, Yonsei University, priority 2019, published 2022).

How the values were obtained:
Assay type in all cases: in vivo, C57BL/6 male mice
[1] = Spleen size and weight of mice after MC38 injection and drug administration; conditions: MC38 model, 7 days; not statistically significant by one-way ANOVA
Description: (§1) MC-38 colorectal cancer cells (5×10^5 cells) were injected subcutaneously into 7-week-old C57BL/6 male mice. Seven days after the colorectal cancer cells were injected, the average tumor volume of the subcutaneous MC-38 tumor was about 40 mm^3. The injection method of the mouse tumor as described above was equally applied to all four groups below. Afterwards, the experimental group was divided into the vehicle administration control group, SAC-1004 and anti-PD1 co-administration group, SAC-1004 single administration group, and anti-PD1 single administration group, and the experiment was performed.
(§2) Specifically, the administration was performed as follows. SAC-1004, a vascular leak inhibitor, was dissolved in DMSO in PBS, and 1 mg per kg of mouse body weight was administered daily by intravenous injection. Anti-PD1, an immune checkpoint inhibitor, was administered at the concentration of 200 ng/mouse by intraperitoneal injection 3 times a week along with 200 ng of rat igG2a. […]
(§3) In a total of 4 groups consisting of control group, SAC-1004 and anti-PD1 co-administration group, SAC-1004 single administration group, and anti-PD1 single administration group, the spleen size of mice treated with the drug for 7 days as described above in the experimental animal model was analyzed.

VE-cadherin = assay: Adherent junction expression in mouse tumor (IHC staining); conditions: drug administered for 14 days
Description: as §1
Specifically, the administration was performed as follows. SAC-1004, a vascular leak inhibitor, was dissolved in DMSO in PBS, and 1 mg per kg of mouse body weight was administered daily by intravenous injection. […]
In a total of 4 groups consisting of control group, SAC-1004 and anti-PD1 co-administration group, SAC-1004 single administration group, and anti-PD1 single administration group, the expression of adherent junction in the tumor of the mouse treated with the drug as described above in the experimental animal model was analyzed except that the drug was administered for 14 days by daily administration of SAC-1004 for 7 days and administration of anti-PD1 3 times a week. […]

[2] = system: MC38 colorectal cancer cell line; assay: Tumor size change in mice after MC38 colorectal cancer cell line injection and drug administration; conditions: subcutaneous MC-38 tumor, drug administration for 7 days; statistically proved by two-way ANOVA
Description: as §1, §2
as §3, with “tumor” for “spleen”, “changes according to” for “of mice treated with”, “drug administration” for “drug”, “were” for “was”

[3] = system: MC38 colorectal cancer cell line; assay: Tumor weight of mice after MC38 injection and drug administration; conditions: MC38 model, 7 days; statistically proved by one-way ANOVA
Description: as §1, §2
as §3, with “tumor weight” for “spleen size”

COC(=O)CCC/C=C(\C)[C@H]1CCC2C3CC=C4C[C@@H](OC5C=C[C@H](OC(C)=O)[C@@H](COC(C)=O)O5)CC[C@]4(C)C3CC[C@@]21C (stereo partly shown) [SAC-1004]
spleen weight [1]: higher than that of the control group mice
ratio of intratumoral VE-cadherin (VE-cadherin): increased
tumor size [2]: reduced compared to that in the control group
tumor weight [3]: lower than that of the anti-PD1 single administration group mice
